ChEMBL document CHEMBL5370527, “Hit-to-lead optimization of a pyrazinylpiperazine series against Leishmania infantum and Leishmania braziliensis” (Eur J Med Chem, 2023)
pIC50: −log10 of the molar value.

Key:
[1] = Cytotoxicity against human THP-1 cells assessed as reduction in cell viability incubated for 72 hrs by alamarblue staining based analysis; assay type: toxicity
[2] = Selectivity index, ratio of CC50 for cytotoxicity against human THP-1 cells assessed as reduction in cell viability to IC50 for antileishmanial activity against […] stage of Leishmania braziliensis MHOM/BR/75/M2904 infected in human THP-1 cells assessed as parasite growth inhibition; assay type: toxicity, cell-based; conditions: read-out: Ratio CC50/IC50
Leishmania infantum = assay: Antileishmanial activity against […] stage of Leishmania infantum MHOM/BR/1974/PP75 infected in human THP-1 cells assessed as parasite growth inhibition incubated for 72 hrs by microplate reader analysis; assay type: functional, organism-based; conditions: MHOM/BR/1974/PP75, THP-1, 72 h
Trypanosoma cruzi = assay: Antitrypanosomal activity against Trypanosoma cruzi Tulahuen infected in mouse L929 cells assessed as parasite growth inhibition incubated for 96 hrs; assay type: functional, organism-based; conditions: L929, 96 h
Leishmania braziliensis = assay: Antileishmanial activity against […] stage of Leishmania braziliensis MHOM/BR/75/M2904 infected in human THP-1 cells assessed as parasite growth inhibition incubated for 72 hrs by microplate reader analysis; assay type: functional, organism-based; conditions: MHOM/BR/75/M2904, THP-1, 72 h
[3] = Selectivity index, ratio of CC50 for cytotoxicity against human THP-1 cells assessed as reduction in cell viability to IC50 for antileishmanial activity against […] stage of Leishmania infantum MHOM/BR/1974/PP75 infected in human THP-1 cells assessed as parasite growth inhibition; assay type: toxicity, cell-based; conditions: read-out: Ratio CC50/IC50

Structure (SMILES) | CC50 at 72 h [1] [µM] | selectivity ratio [2] | pIC50 (Leishmania infantum) | pIC50 (Trypanosoma cruzi) | pIC50 (Leishmania braziliensis) | selectivity ratio [3]
O=C(c1ccccc1O)N1CCN(c2cnccn2)CC1 | 2620 | 31 | 4.23 | < 3.76 | 4.07 | 45
O=C(c1ccc(C(F)(F)F)nc1)N1CCN(c2cnccn2)CC1 | 10500 | 327 | 4.45 | < 3.76 | 4.49 | 298
O=C(c1cccc(Cl)c1)N1CCN(c2cnccn2)CC1 | 662 | 7 | 3.95 | < 3.76 | 4.03 | 6
O=C(c1ccc(Cl)nc1)N1CCN(c2cnccn2)CC1 | 349 | 35 | 5.72 | – | 5.00 | 184
COc1ccc(C(=O)N2CCN(c3cnccn3)CC2)cc1OC | 721 | 21 | 4.26 | – | 4.47 | 13
O=C(c1ccc(N2CCCC2)nc1)N1CCN(c2cnccn2)CC1 | 280 | 48 | 5.28 | – | 5.23 | 53
O=C(c1ccc(OC(F)(F)F)cc1)N1CCN(c2cnccn2)CC1 | 865 | 49 | 5.12 | < 3.76 | 4.76 | 115
O=C(c1ccc(O)nc1)N1CCN(c2cnccn2)CC1 | > 3500 | > 19 | 3.75 | – | 3.73 | 1460
COc1ccc(C(=O)N2CCN(c3cnccn3)CC2)cc1 | 1900 | 188 | 5.35 | < 3.76 | 5.00 | 422
O=C(c1cc(Cl)ccc1O)N1CCN(c2cnccn2)CC1 | 1600 | 357 | 4.97 | – | 5.35 | 149
O=C(/C=C/c1ccc(O)c(O)c1)N1CCN(c2cnccn2)CC1 | > 3060 | > 41 | 3.98 | – | 4.13 | > 29
O=C(c1ccc(F)cc1O)N1CCN(c2cnccn2)CC1 | 1130 | 44 | 4.85 | – | 4.59 | 80
Oc1ccc(N2CCN(c3cnccn3)CC2)cc1 | > 3900 | > 144 | 4.36 | – | 4.57 | > 89
N[C@@H](Cc1ccc(O)cc1)C(=O)N1CCN(c2cnccn2)CC1 | 2410 | 35 | 5.48 | – | 4.16 | –
O=C(c1ccc(-n2cnnn2)cc1)N1CCN(c2cnccn2)CC1 | 2610 | 293 | 5.24 | < 3.76 | 5.05 | 449
O=C(c1ccc2cc(O)ccc2c1)N1CCN(c2cnccn2)CC1 | 796 | 306 | 5.48 | – | 5.59 | 241
O=C(c1ccccc1)N1CCN(c2cnccn2)CC1 | 716 | 29 | 4.20 | < 3.76 | 4.61 | 11
O=C(c1cccnc1)N1CCN(c2cnccn2)CC1 | > 3710 | > 28 | 3.85 | – | 3.88 | > 26
O=C(N1CCN(c2cnccn2)CC1)n1ccnc1 | 3190 | 347 | 5.14 | – | 5.04 | 438
O=C(c1ccc(O)cc1)N1CCN(c2cnccn2)CC1 | 1070 | 141 | 5.51 | < 3.76 | 5.12 | 346
O=C(c1ccc(O)c(O)c1)N1CCN(c2cnccn2)CC1 | 1420 | 151 | 5.46 | – | 5.03 | 407
